From patent US5530126A, “Process for the preparation of substituted 6-(pyrazol-3yl)-1,4-benzoxazin-3-ones” (Monsanto Company, priority 1994, dated 1996)

Tests used:
Type in all cases: in vivo
Wild buckwheat [1] = assay: Post-emergence herbicide test; conditions: Fallopia convolvulus, read-out: % plant inhibition (Wibw); for inhibition at 1120 g/ha: 1.12 kg/ha
In short: (§1)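 Foliar spray trial in greenhouse pans: two- to three-week-old plants treated at 200 gallons/acre by atomizer, spray containing about 0.4% emulsifier. Percent inhibition compared with untreated controls was recorded around day 11.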

Seedling johnsongrass [2] = assay: Post-emergence herbicide test; conditions: Sorghum halepense, read-out: % plant inhibition (Sejg); for inhibition at 1120 g/ha: 1.12 kg/ha
In short: as §1

Downy Brome [3] = assay: Post-emergence herbicide test; conditions: Bromus tectorum, read-out: % plant inhibition (Dobr); for inhibition at 1120 g/ha: 1.12 kg/ha
In short: as §1

Barnyardgrass [4] = assay: Post-emergence herbicide test; conditions: Echinochloa crus-galli, read-out: % plant inhibition (Bygr); for inhibition at 1120 g/ha: 1.12 kg/ha
In short: as §1

Yellow nutsedge [5] = assay: Post-emergence herbicide test; conditions: Cyperus, read-out: % plant inhibition (Yens); for inhibition at 1120 g/ha: 1.12 kg/ha
In short: as §1

Velvetleaf [6] = assay: Post-emergence herbicide test; conditions: Abutilon theophrasti, read-out: % plant inhibition (Vele); for inhibition at 1120 g/ha: 1.12 kg/ha
In short: as §1

Indian Mustard [7] = assay: Post-emergence herbicide test; conditions: Brassica juncea, read-out: % plant inhibition (Inmu); for inhibition at 1120 g/ha: 1.12 kg/ha
In short: as §1

Morningglory [8] = assay: Post-emergence herbicide test; conditions: Ipomoea, read-out: % plant inhibition (Mogl); for inhibition at 1120 g/ha: 1.12 kg/ha
In short: as §1

Annual bluegrass [9] = assay: Post-emergence herbicide test; conditions: read-out: % plant inhibition (Anbg); for inhibition at 1120 g/ha: 1.12 kg/ha
In short: as §1

Cocklebur [10] = assay: Post-emergence herbicide test; conditions: Xanthium strumarium, read-out: % plant inhibition (Cobu); for inhibition at 1120 g/ha: 1.12 kg/ha
In short: as §1

Wild buckwheat [11] = assay: Pre-emergence herbicide test; conditions: Fallopia convolvulus, read-out: % plant inhibition (Wibw); for inhibition at 1120 g/ha: 1.12 kg/ha
In short: (§2)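 Seeds or propagules placed on compacted topsoil, treated directly with a known amount of active ingredient in organic solvent or water, then covered with untreated soil. Pans kept in greenhouse, sub-irrigated; % inhibition scored about 10–14 days (usually 11) after seeding.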

Seedling johnsongrass [12] = assay: Pre-emergence herbicide test; conditions: Sorghum halepense, read-out: % plant inhibition (Sejg); for inhibition at 1120 g/ha: 1.12 kg/ha
In short: as §2

Downy Brome [13] = assay: Pre-emergence herbicide test; conditions: Bromus tectorum, read-out: % plant inhibition (Dobr); for inhibition at 1120 g/ha: 1.12 kg/ha
In short: as §2

Barnyardgrass [14] = assay: Pre-emergence herbicide test; conditions: Echinochloa crus-galli, read-out: % plant inhibition (Bygr); for inhibition at 1120 g/ha: 1.12 kg/ha
In short: as §2

Yellow nutsedge [15] = assay: Pre-emergence herbicide test; conditions: Cyperus, read-out: % plant inhibition (Yens); for inhibition at 1120 g/ha: 1.12 kg/ha
In short: as §2

Velvetleaf [16] = assay: Pre-emergence herbicide test; conditions: Abutilon theophrasti, read-out: % plant inhibition (Vele); for inhibition at 1120 g/ha: 1.12 kg/ha
In short: as §2

Indian Mustard [17] = assay: Pre-emergence herbicide test; conditions: Brassica juncea, read-out: % plant inhibition (Inmu); for inhibition at 1120 g/ha: 1.12 kg/ha
In short: as §2

Morningglory [18] = assay: Pre-emergence herbicide test; conditions: Ipomoea, read-out: % plant inhibition (Mogl); for inhibition at 1120 g/ha: 1.12 kg/ha
In short: as §2

Annual bluegrass [19] = assay: Pre-emergence herbicide test; conditions: read-out: % plant inhibition (Anbg); for inhibition at 1120 g/ha: 1.12 kg/ha
In short: as §2

Cocklebur [20] = assay: Pre-emergence herbicide test; conditions: Xanthium strumarium, read-out: % plant inhibition (Cobu); for inhibition at 1120 g/ha: 1.12 kg/ha
In short: as §2

[21] = system: resistant broadleaf weeds such as pigweed, cocklebur, velvetleaf and hemp sesbania; assay: Control of resistant broadleaf weeds in crops; conditions: in various crops such as corn, soybean and nuts and in forestry

## C#CCOc1cc(-c2nn(C)c(C(F)(F)F)c2Cl)c(F)cc1Cl [Compound 261, 4-Chloro-3-(4-chloro-2-fluoro-5-propargyl-oxyphenyl)-1-methyl-5-(trifluoromethyl)-1H-pyrazole]
Wild buckwheat [1]; 11.21 kg/ha
  inhibition at 11210 g/ha: 100%
Seedling johnsongrass [2]; 11.21 kg/ha
  inhibition at 11210 g/ha: 100%
Downy Brome [3]; 11.21 kg/ha
  inhibition at 11210 g/ha: 100%
Barnyardgrass [4]; 11.21 kg/ha
  inhibition at 11210 g/ha: 100%
Yellow nutsedge [5]; 11.21 kg/ha
  inhibition at 11210 g/ha: 20%
Velvetleaf [6]; 11.21 kg/ha
  inhibition at 11210 g/ha: 100%
Indian Mustard [7]; 11.21 kg/ha
  inhibition at 11210 g/ha: 100%
Morningglory [8]; 11.21 kg/ha
  inhibition at 11210 g/ha: 100%
Annual bluegrass [9]; 11.21 kg/ha
  inhibition at 11210 g/ha: 100%
Cocklebur [10]; 11.21 kg/ha
  inhibition at 11210 g/ha: 100%
Wild buckwheat [11]; 11.21 kg/ha
  inhibition at 11210 g/ha: 100%
Seedling johnsongrass [12]; 11.21 kg/ha
  inhibition at 11210 g/ha: 100%
Downy Brome [13]; 11.21 kg/ha
  inhibition at 11210 g/ha: 100%
Barnyardgrass [14]; 11.21 kg/ha
  inhibition at 11210 g/ha: 100%
Yellow nutsedge [15]; 11.21 kg/ha
  inhibition at 11210 g/ha: 30%
Velvetleaf [16]; 11.21 kg/ha
  inhibition at 11210 g/ha: 100%
Indian Mustard [17]; 11.21 kg/ha
  inhibition at 11210 g/ha: 100%
Morningglory [18]; 11.21 kg/ha
  inhibition at 11210 g/ha: 100%
Annual bluegrass [19]; 11.21 kg/ha
  inhibition at 11210 g/ha: 100%
Cocklebur [20]; 11.21 kg/ha
  inhibition at 11210 g/ha: 100%
[21]
  control of resistant broadleaf weeds: outstanding control

## CC(C)OC(=O)c1cc(-c2nn(C)c(C(F)(F)F)c2Cl)c(F)cc1Cl [Compound 135, 2-chloro-5-[4-chloro-1-methyl-5-(trifluoromethyl)-1H-pyrazol-3-yl]-4-fluorobenzoic acid, 1-methylethyl ester]
Wild buckwheat [1]
  inhibition at 1120 g/ha: 100%
Seedling johnsongrass [2]
  inhibition at 1120 g/ha: 100%
Downy Brome [3]
  inhibition at 1120 g/ha: 100%
Barnyardgrass [4]
  inhibition at 1120 g/ha: 100%
Yellow nutsedge [5]
  inhibition at 1120 g/ha: 20%
Velvetleaf [6]
  inhibition at 1120 g/ha: 100%
Indian Mustard [7]
  inhibition at 1120 g/ha: 100%
Morningglory [8]
  inhibition at 1120 g/ha: 100%
Annual bluegrass [9]
  inhibition at 1120 g/ha: 100%
Cocklebur [10]
  inhibition at 1120 g/ha: 100%
Wild buckwheat [11]
  inhibition at 1120 g/ha: 100%
Seedling johnsongrass [12]
  inhibition at 1120 g/ha: 100%
Downy Brome [13]
  inhibition at 1120 g/ha: 100%
Barnyardgrass [14]
  inhibition at 1120 g/ha: 100%
Yellow nutsedge [15]
  inhibition at 1120 g/ha: 0%
Velvetleaf [16]
  inhibition at 1120 g/ha: 100%
Indian Mustard [17]
  inhibition at 1120 g/ha: 100%
Morningglory [18]
  inhibition at 1120 g/ha: 90%
Annual bluegrass [19]
  inhibition at 1120 g/ha: 100%
Cocklebur [20]
  inhibition at 1120 g/ha: 90%
[21]
  control of resistant broadleaf weeds: outstanding control

## CC(C)OC(=O)COc1cc(-c2nn(C)c(C(F)(F)F)c2Cl)c(F)cc1Cl [Compound 282, (2-Chloro-5-(4-chloro-1-methyl-5-(trifluoromethyl)-1H-pyrazol-3-yl)-4-fluorophenoxy)acetic acid, 1-methylethyl ester]
Wild buckwheat [1]
  inhibition at 1120 g/ha: 100%
Seedling johnsongrass [2]
  inhibition at 1120 g/ha: 20%
Downy Brome [3]
  inhibition at 1120 g/ha: 0%
Barnyardgrass [4]
  inhibition at 1120 g/ha: 30%
Yellow nutsedge [5]
  inhibition at 1120 g/ha: 10%
Velvetleaf [6]
  inhibition at 1120 g/ha: 100%
Indian Mustard [7]
  inhibition at 1120 g/ha: 10%
Morningglory [8]
  inhibition at 1120 g/ha: 70%
Annual bluegrass [9]
  inhibition at 1120 g/ha: 0%
Cocklebur [10]
  inhibition at 1120 g/ha: 100%
Wild buckwheat [11]
  inhibition at 1120 g/ha: 90%
Seedling johnsongrass [12]
  inhibition at 1120 g/ha: 30%
Downy Brome [13]
  inhibition at 1120 g/ha: 20%
Barnyardgrass [14]
  inhibition at 1120 g/ha: 20%
Yellow nutsedge [15]
  inhibition at 1120 g/ha: 40%
Velvetleaf [16]
  inhibition at 1120 g/ha: 100%
Indian Mustard [17]
  inhibition at 1120 g/ha: 30%
Morningglory [18]
  inhibition at 1120 g/ha: 90%
Annual bluegrass [19]
  inhibition at 1120 g/ha: 20%
Cocklebur [20]
  inhibition at 1120 g/ha: 30%
[21]
  control of resistant broadleaf weeds: outstanding control

## Cn1nc(-c2cc(C3SCCS3)c(Cl)cc2F)c(Cl)c1C(F)(F)F [Compound 101]
Wild buckwheat [1]
  inhibition at 1120 g/ha: 100%
Seedling johnsongrass [2]
  inhibition at 1120 g/ha: 70%
Downy Brome [3]
  inhibition at 1120 g/ha: 100%
Barnyardgrass [4]
  inhibition at 1120 g/ha: 100%
Yellow nutsedge [5]
  inhibition at 1120 g/ha: 30%
Velvetleaf [6]
  inhibition at 1120 g/ha: 100%
Indian Mustard [7]
  inhibition at 1120 g/ha: 100%
Morningglory [8]
  inhibition at 1120 g/ha: 100%
Annual bluegrass [9]
  inhibition at 1120 g/ha: 90%
Cocklebur [10]
  inhibition at 1120 g/ha: 100%
Wild buckwheat [11]
  inhibition at 1120 g/ha: 90%
Seedling johnsongrass [12]
  inhibition at 1120 g/ha: 80%
Downy Brome [13]
  inhibition at 1120 g/ha: 80%
Barnyardgrass [14]
  inhibition at 1120 g/ha: 40%
Yellow nutsedge [15]
  inhibition at 1120 g/ha: 0%
Velvetleaf [16]
  inhibition at 1120 g/ha: 100%
Indian Mustard [17]
  inhibition at 1120 g/ha: 100%
Morningglory [18]
  inhibition at 1120 g/ha: 80%
Annual bluegrass [19]
  inhibition at 1120 g/ha: 70%
Cocklebur [20]
  inhibition at 1120 g/ha: 30%
